The source made the active and inactive calls.
Legend:
[1] = Luminescence Cell-Based Dose Confirmation HTS to Identify Activators of 5'UTR Stem-Loop Driven Alpha-Synuclein mRNA Translation in H4 Neuroglioblastoma Cells. [Related pubchem assays: 1829 (Project Summary), 1814 (Primary HTS)]; assay type: functional
[2] = Luminescence Cell-Based Dose Response HTS to Identify Activators of Luciferase Translation or Activity in H4 […] Cells. [Related pubchem assays: 1829 (Project Summary), 1814 (Primary HTS)]; assay type: functional
[3] = test system: H4; test: Luminescence Cell-Based Dose Response HTS to Identify Activators of 5'UTR Stem-Loop Driven Prion Protein mRNA Translation in H4 Neuroglioblastoma Cells. [Related pubchem assays: 1829 (Project Summary), 1814 (Primary HTS)]; assay type: functional; details: Homo sapiens
[4] = viability of PTEN-deleted HCT116 cells – cell-based, HCT116 PTEN knockout, dose response (AID 1047); assay type: functional;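 note: HCT116 colon tumor cells with PTEN knocked out; cells exposed to compound for 60 hours before readout; potency for loss of cell viability measured by luminescence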
[5] = viability of HCT116 lacking mutant beta-catenin – cell-based, human colon tumor, dose response (AID 1045); assay type: functional;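 note: HCT116 colon tumor cells with beta catenin knocked out; cells exposed to compound for 60 hours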
[6] = molecular target: T1, Cytochrome P450 1A2 (Homo sapiens, UniProt P05177);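 note: PubChem cytochrome P450 panel assay, CYP1A2 panel member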
T1 sequence (P05177 whole entry): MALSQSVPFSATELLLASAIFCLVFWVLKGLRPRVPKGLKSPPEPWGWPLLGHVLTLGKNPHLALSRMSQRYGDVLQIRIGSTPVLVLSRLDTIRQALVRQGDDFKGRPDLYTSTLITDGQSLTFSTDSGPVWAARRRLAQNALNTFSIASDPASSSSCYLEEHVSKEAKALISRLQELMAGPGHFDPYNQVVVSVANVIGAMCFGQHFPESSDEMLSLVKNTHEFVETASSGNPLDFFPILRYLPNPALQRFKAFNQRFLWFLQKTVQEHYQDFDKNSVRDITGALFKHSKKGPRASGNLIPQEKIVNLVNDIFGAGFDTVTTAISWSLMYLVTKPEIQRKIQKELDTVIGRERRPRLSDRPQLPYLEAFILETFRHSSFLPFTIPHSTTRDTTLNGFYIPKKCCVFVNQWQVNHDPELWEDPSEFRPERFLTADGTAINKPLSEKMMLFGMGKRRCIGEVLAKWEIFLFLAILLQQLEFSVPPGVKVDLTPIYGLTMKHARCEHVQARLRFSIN

[7] = molecular target: T2, Polyadenylate-binding protein 1 (Homo sapiens, UniProt P11940); test: MLLE binding blockers, Cy5 peptide tracer – biochemical, fluorescence polarization, Cy5-PAM2 peptide, secondary, miRNA deadenylation inhibitor project, dose response (AID 602260); assay type: functional; details: read-out: IC50_Mean
[8] = molecular target: T2, Polyadenylate-binding protein 1; test: MLLE domain peptide-binding blockers, IC50 – biochemical, fluorescence polarization, FITC-PAM2 peptide, dose response (AID 602259); assay type: functional; details: read-out: IC50_Mean
[9] = molecular target: Cytochrome P450 2C19 (Homo sapiens, UniProt P33261); test: Cytochrome panel assay with activity outcomes. Panel member name: p450-cyp2c19 Compounds with AC50 equal or less than 10 uM are considered active; assay type: functional; details: read-out: AC50
[10] = molecular target: Cytochrome P450 3A4 (Homo sapiens, UniProt P08684);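 note: CYP3A4 tested as one member of a cytochrome P450 panel screen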
[11] = molecular target: Cytochrome P450 2D6 (Homo sapiens, UniProt P10635);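 note: CYP2D6 member of a cytochrome P450 panel assay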
[12] = microbe, parasite or virus in culture; assay type: functional; details: Mycobacterium tuberculosis
[13] = test system: Streptococcus sp. 'group A'; test: Streptococcus pyogenes SK(-)GAS viability under kanamycin – luminescence, BacTiterGlo, confirmation, counter-screen for streptokinase expression inhibitor project, dose response (AID 1900); assay type: functional, organism-based
[14] = molecular target: T3, Streptokinase A (Streptococcus pyogenes serotype M1, UniProt P10520); test: viability-normalized secreted streptokinase activity reduction – plasminogen activation absorbance, OD405, dose response (AID 1914); assay type: functional, Streptococcus pyogenes M1 GAS;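 note: secreted streptokinase activity via plasminogen activation per viability signal from cell pellet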
T3 sequence (P10520 whole entry): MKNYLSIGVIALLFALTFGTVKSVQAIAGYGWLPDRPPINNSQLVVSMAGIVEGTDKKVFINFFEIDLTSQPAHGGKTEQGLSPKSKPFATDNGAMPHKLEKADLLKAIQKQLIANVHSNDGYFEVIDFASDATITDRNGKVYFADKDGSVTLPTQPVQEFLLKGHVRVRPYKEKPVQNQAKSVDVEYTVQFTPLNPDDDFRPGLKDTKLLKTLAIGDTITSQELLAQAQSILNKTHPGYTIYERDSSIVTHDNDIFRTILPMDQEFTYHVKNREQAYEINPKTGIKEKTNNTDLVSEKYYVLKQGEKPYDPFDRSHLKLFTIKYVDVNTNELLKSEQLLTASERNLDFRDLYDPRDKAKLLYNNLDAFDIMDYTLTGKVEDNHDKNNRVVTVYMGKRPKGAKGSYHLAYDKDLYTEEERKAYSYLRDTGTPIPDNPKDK

[15] = test system: Streptococcus; test: GAS UMAA2166 growth inhibition – luminescence, BacTiterGlo, counter-screen for streptokinase expression inhibitor project, dose response (AID 1915); assay type: functional, organism-based;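 note: potency for reduction of bacterial viability or growth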
[16] = Luminescence Cell-Based Dose Retest to Confirm Inhibitors of Cancer Stem Cells. [Related pubchem assays (depositor defined):AID2717, AID2721]; assay type: functional; details: Homo sapiens
[17] = test system: INS1; test: INS-1E survival protection against cytokine death – cell-based, luminescence, retest, dose response (AID 449756); assay type: functional; details: Rattus norvegicus;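 note: cell death triggered by IL-1 beta plus TNF-alpha plus IFN-gamma mixture; protective hits raise ATP signal compared with cytokine alone wells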
[18] = NIH-3T3 fibroblast cytotoxicity, dose response, cytotoxicity control, cell-based, fluorescence, Alamar Blue, secondary assay (AID 2327); assay type: functional;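 note: NIH-3T3 mouse fibroblasts cultured with fluconazole at 8 µg/mL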
[19] = fluconazole-exposed Candida albicans growth modulators – fluorescence, retest, confirmation (AID 2467); assay type: functional, cell-based
[20] = luciferase reporter signal suppression in cells – H4 neuroglioma cells, luminescence, dose response (AID 1990); assay type: functional, cell-based
[21] = Luminescence Cell-Based Dose Response HTS to Identify Inhibitors of 5'UTR Stem-Loop Driven Prion Protein mRNA Translation in H4 Neuroglioblastoma Cells. [Related pubchem assays: 1827 (Project Summary), 1813 (Primary HTS)]; assay type: functional
[22] = alpha-synuclein stem-loop luciferase translation blockers – H4 neuroglioma cells, luminescence, confirmation (AID 1988); assay type: functional, cell-based

Chain of Cytochrome P450 2C19 (P33261 whole entry): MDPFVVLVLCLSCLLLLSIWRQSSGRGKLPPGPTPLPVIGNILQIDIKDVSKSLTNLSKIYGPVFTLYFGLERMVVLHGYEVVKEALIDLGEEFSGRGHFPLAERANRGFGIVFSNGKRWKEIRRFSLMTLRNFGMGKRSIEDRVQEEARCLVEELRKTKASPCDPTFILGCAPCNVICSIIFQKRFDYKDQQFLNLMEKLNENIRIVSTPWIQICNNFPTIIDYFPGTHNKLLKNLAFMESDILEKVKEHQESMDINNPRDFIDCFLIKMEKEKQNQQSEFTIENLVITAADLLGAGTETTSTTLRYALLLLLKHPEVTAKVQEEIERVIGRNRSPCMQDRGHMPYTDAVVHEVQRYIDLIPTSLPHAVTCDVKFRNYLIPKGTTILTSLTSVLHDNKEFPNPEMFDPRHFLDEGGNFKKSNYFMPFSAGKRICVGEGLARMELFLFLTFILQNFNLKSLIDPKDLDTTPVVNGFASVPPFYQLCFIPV
Chain of Cytochrome P450 3A4 (P08684 whole entry): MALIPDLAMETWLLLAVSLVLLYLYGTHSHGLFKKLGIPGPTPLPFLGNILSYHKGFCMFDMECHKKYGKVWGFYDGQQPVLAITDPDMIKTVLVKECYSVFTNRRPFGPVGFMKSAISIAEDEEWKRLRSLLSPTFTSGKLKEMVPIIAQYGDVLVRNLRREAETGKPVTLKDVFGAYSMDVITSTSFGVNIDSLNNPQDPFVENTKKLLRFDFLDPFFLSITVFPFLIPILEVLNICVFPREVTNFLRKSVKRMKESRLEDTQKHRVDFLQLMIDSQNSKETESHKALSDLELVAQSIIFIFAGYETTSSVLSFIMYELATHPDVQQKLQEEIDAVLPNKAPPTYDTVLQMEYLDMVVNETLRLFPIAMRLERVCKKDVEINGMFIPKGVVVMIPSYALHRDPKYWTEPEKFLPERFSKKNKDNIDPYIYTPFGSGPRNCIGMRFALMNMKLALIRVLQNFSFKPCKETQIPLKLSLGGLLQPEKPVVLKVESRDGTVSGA
T2 sequence (P11940 whole entry, the tested form may be a part): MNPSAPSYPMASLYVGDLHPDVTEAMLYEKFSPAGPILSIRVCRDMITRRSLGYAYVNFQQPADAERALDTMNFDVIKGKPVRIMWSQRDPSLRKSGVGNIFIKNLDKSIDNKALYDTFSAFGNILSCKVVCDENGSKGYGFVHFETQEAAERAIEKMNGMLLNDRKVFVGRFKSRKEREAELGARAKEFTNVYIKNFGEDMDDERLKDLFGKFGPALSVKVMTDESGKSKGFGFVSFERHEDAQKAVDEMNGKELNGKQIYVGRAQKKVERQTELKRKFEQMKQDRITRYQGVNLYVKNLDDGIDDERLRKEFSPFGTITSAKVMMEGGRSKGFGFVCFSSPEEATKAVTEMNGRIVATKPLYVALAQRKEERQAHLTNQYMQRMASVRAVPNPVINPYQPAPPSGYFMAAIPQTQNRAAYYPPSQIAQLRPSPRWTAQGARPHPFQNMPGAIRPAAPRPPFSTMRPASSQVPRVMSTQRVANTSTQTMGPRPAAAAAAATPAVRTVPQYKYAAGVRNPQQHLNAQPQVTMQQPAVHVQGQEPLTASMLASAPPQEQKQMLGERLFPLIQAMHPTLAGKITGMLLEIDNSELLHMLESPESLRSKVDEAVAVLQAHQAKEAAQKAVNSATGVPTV
Chain of Cytochrome P450 2D6 (P10635 whole entry): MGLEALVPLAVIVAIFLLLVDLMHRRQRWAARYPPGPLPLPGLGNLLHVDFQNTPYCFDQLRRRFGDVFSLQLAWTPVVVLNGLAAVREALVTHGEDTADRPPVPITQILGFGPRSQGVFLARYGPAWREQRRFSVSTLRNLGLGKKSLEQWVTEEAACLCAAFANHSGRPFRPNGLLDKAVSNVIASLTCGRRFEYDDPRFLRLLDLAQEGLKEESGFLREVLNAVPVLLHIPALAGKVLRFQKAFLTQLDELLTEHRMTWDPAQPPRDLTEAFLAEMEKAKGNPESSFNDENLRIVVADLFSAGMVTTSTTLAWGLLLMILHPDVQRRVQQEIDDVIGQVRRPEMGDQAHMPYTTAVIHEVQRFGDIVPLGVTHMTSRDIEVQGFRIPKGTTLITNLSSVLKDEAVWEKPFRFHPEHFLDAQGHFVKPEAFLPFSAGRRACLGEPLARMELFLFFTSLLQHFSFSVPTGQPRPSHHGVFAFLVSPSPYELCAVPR

## C(=N\Nc1nc(-c2ccccc2)cs1)/c1ccco1
[1]
  EC50: 5.18 µM (active)
[2]
  EC50: 7.64 µM (active)
[3]
  EC50: 33.2 µM (active)

## Cn1c(=O)c(C(=O)CSc2nnc(Nc3ccccc3)s2)c(N)n(Cc2ccccc2)c1=O
[4]
  EC50: 8.05 µM (active)
[5]
  EC50: 9.15 µM (active)

## Cn1c(=O)c(-c2ccc(Cl)cc2)nc2cnc(Nc3ccccc3)nc21
[6]
  AC50: 31.6 µM (inconclusive)

## COC(=O)c1ccc(-n2cnc3ccccc32)nc1
[1]
  EC50: 14.1 µM (active)
[2]
  EC50: 16.1 µM (active)
[3]
  EC50: > 120 µM (not active)

## Cc1ccccc1Nc1nc(N)nc(O)c1N=O
[7]
  IC50: > 66 µM (inactive)
[8]
  IC50: 38.2 µM (inactive)

## COc1ccc(NC(S)=Nc2ccc3nccnc3c2)cc1
[1]
  EC50: > 120 µM (not active)
[2]
  EC50: 7.7 µM (active)
[3]
  EC50: 8.17 µM (active)

## O=C(OCc1ccc(Cl)cc1)c1ccccc1C(=O)c1ccccc1
[9]
  AC50: 0.0891 µM (inconclusive)
[6]
  AC50: 3.55 µM (inconclusive)
[10]
  AC50: 17.8 µM (inconclusive)

## Cc1n[nH]c(SC(C(=O)c2ccccc2)c2ccccc2)n1 (stereo unspecified)
[11]
  AC50: 20 µM (inconclusive)
[6]
  AC50: 39.8 µM (inconclusive)

## COc1ccc(OCC(=O)NC(=S)Nc2ccc(S(=O)(=O)Nc3cc(OC)nc(OC)n3)cc2)cc1
[7]
  IC50: > 66 µM (inactive)
[8]
  IC50: > 66 µM (inactive)

## CCC(C(=O)NC1CCCC1)N(C(=O)Cn1nnc(-c2ccc(C)o2)n1)c1cnc2ccccc2c1 (stereo unspecified)
[4]
  EC50: 17.2 µM (active)
[5]
  EC50: 17.5 µM (active)

## Fc1cccc(CCN2CCNC[C@H]2Cc2cccc3ccccc23)c1
[12]
  CC50: 26.2 µM (active)

## CN1CCN(C(=O)c2ccc(-n3cccc3)cc2)CC1
[9]
  AC50: 25.1 µM (inconclusive)
[11]
  AC50: 15.8 µM (inconclusive)
[6]
  AC50: 25.1 µM (inconclusive)

## O=C(Nc1nc(-c2cc(Cl)sc2Cl)cs1)c1cccs1
[13]
  EC50: 14.2 µM (active)
[14]
  EC50: > 50 µM (not active)
[12]
  CC50: 25.9 µM (active)
[15]
  EC50: 18.1 µM (active)
[16]
  AC50: 1.13 µM (active)

## COC(=O)c1ccc(CO/N=C2\CCCc3nonc32)cc1
[1]
  EC50: 92.4 µM (active)
[2]
  EC50: 17.8 µM (active)
[3]
  EC50: 12.9 µM (active)

## CCOC(=O)c1sc(NC(=O)c2c(C)nn(Cc3ccccc3)c2C)cc1C
[4]
  EC50: 30.4 µM (active)
[5]
  EC50: 27.7 µM (active)
[17]
  AC50: 37.2 µM (active)

## c1ccc(CN2CCN(c3nc(-c4ccccn4)nc4ccccc34)CC2)cc1
[4]
  EC50: 10.6 µM (active)
[5]
  EC50: 8.05 µM (active)

## COCCSc1nnc(NC(=O)C(C)(C)C)s1
[6]
  AC50: 25.1 µM (inconclusive)

## CCSc1sccc1C1C(C#N)=C(N)N(c2cccnc2)C2=C1C(=O)CCC2 (stereo unspecified)
[7]
  IC50: > 66 µM (inactive)
[8]
  IC50: > 66 µM (inactive)

## COCCSc1nnc(NC(=O)CCS(=O)(=O)c2ccccc2)s1
[18]
  EC50: > 150 µM (inactive)
[19]
  EC50: 3.97 µM (active)

## Oc1ccc(C(=S)N2CCCCCC2)cc1
[7]
  IC50: > 66 µM (inactive)
[8]
  IC50: > 66 µM (inactive)

## COc1ccc(/C=C/C(=O)Nc2ccccc2C(=O)N2CCCC2)cc1
[6]
  AC50: 28.2 µM (inconclusive)
[10]
  AC50: 1 µM (inconclusive)

## COc1cc2c(cc1OC)CN(C(=O)CSc1ccccc1C)CC2
[7]
  IC50: > 66 µM (inactive)
[8]
  IC50: > 66 µM (inactive)

## CC1CCc2c(sc3ncnc(NCCCOC(C)C)c23)C1 (stereo unspecified)
[12]
  CC50: > 40 µM (active)

## CCNc1ncc2nc(-c3cc(F)cc(F)c3)c(=O)n(CCc3ccccc3)c2n1
[6]
  AC50: 25.1 µM (inconclusive)
[10]
  AC50: 12.6 µM (inconclusive)

## COc1ccccc1-c1nccc(NC2CCNCC2)n1
[9]
  AC50: 1.58 µM (inconclusive)
[6]
  AC50: 15.8 µM (inconclusive)

## Cc1ccc2sc(C)[n+](CCC(C)S(=O)(=O)[O-])c2c1 (stereo unspecified)
[7]
  IC50: > 66 µM (inactive)
[8]
  IC50: > 66 µM (inactive)

## CC(=O)NC(Cc1ccc(F)cc1)C(=O)O (stereo unspecified)
[6]
  AC50: 0.01 µM (inconclusive)

## O=C(CSc1ccccc1C(=O)O)NC1CCCCCC1
[7]
  IC50: > 66 µM (inactive)
[8]
  IC50: > 66 µM (inactive)

## CCOc1cc(C(=S)N2CCOCC2)ccc1OC
[7]
  IC50: > 66 µM (inactive)
[8]
  IC50: > 66 µM (inactive)

## Cc1ccc(S(=O)(=O)c2nc(Nc3nccs3)sc2Cl)cc1
[12]
  CC50: > 40 µM (active)

## Cc1ccc(NC(=O)c2cc(-c3ccccc3)nn2-c2ccccc2)c(Br)c1
[4]
  EC50: 34.6 µM (active)
[5]
  EC50: 23.5 µM (active)

## CC(=O)c1c(N2CCOCC2)nc(=S)n(-c2ccccc2)c1C
[7]
  IC50: > 66 µM (inactive)
[8]
  IC50: > 66 µM (inactive)

## CCCc1ccc(C(=O)NNc2cccc(C)c2)cc1
[18]
  EC50: 30.2 µM (active)
[19]
  EC50: > 38 µM (not active)

## CC(C)CCn1c(N2CCN(c3cccc(Cl)c3)CC2)nc2c1c(=O)[nH]c(=O)n2C
[20]
  EC50: 18.9 µM (active)
[21]
  EC50: > 60 µM (not active)
[22]
  EC50: > 120 µM (not active)
[4]
  EC50: 26.1 µM (active)
[5]
  EC50: 33.5 µM (active)

## COc1cccc(NC(=O)CSc2nc3ccccc3cc2Cc2ccccc2)c1
[6]
  AC50: 4.47 µM (inconclusive)

## CCOC(=O)N1CCN(C(=O)c2cccn3c(=O)c4cc(Cl)ccc4nc23)CC1
[6]
  AC50: 25.1 µM (inconclusive)

## CC1Cc2ccccc2N1C(=O)CSc1n[nH]c2c3cc(F)ccc3nc-2n1 (stereo unspecified)
[4]
  EC50: 24.5 µM (active)
[5]
  EC50: 25 µM (active)

## Cc1cccc(-c2nc(=S)c3c(o2)CCCC3)c1
[7]
  IC50: > 66 µM (inactive)
[8]
  IC50: > 66 µM (inactive)
